In patent US8697731B2, “Derivatives of 2-pyridin-2-yl-pyrazol-3(2H)-one, preparation and therapeutic use thereof” (Sanofi, priority 2008, dated 2014) one finds melting point and EC50 data, which are given here for eleven molecules.

Usually melting point stands for the temperature of the solid-liquid transition. The EC50 is the concentration giving half of the maximal effect. A lower EC50 goes with an effect from little substance.

The test system of one data set is VEGF. Briefly: Measurement of the secretion of VEGF by Hep3B hepatocytes (ELISA). The format is cell-based. To be noted: Homo sapiens, supernatant of Hep3B cells, 18 hours under normoxia, concentration that produces 50% of the maximum response of this same compound. On the procedure:
(§1) The test is an ELISA test for measuring VEGF and EPO in the supernatant of Hep3B cells treated under hypoxia or with deferoxamine as controls or with the potential HIF activators. The test was adapted to a 96-well plate, allowing greater compound screening capacity.
(§2) 2.3.1 Experiment Plan • 1) Inoculation of the cells on D0 • 2) Adherence for 6 hours under normoxia • 3) Preparation and addition of the products (Biomek 2000 and FX) • 4) Incubation under normoxia for 18 hours • 5) EPO and VEGF assay in the supernatant on D+1
(§3) The cells are subcultured into 100 μl of culture medium (10% FCS) in black, opaque-bottomed 96-well plates (reference Costar 3916) at 30000 cells/well, with Multidrop.
(§4) The test products are prepared at 10^−2M in 100% DMSO and then diluted to […] in medium containing 0.1% FCS (6 μl in 194 μl of MEM). 200 μl of each compound are deposited in column 12 of a 96-well plate. Dilution ranges from 3×10^−4M to 3×10^−8M are prepared with Biomek 2000 (programme: range of 9 points in series). 100 μl of MEM 0.1% FCS and Deferoxamine 5×10^−3M are added as controls to column 3 and, respectively, to wells A,B,C,D & wells E,F,G,H
(§5) The medium of the cells inoculated the day before into 96-well plates is changed for 90 μl of medium containing 0.1% FCS and 10 μl are distributed with FX 96 from the 96-well DL plates to the cell plates.
(§6) The cell plates thus treated are placed for 18 hours in an incubator at 37° C. (ambient O2, 6% CO2).
(§7) The supernatants (80 μl) of the Hep3B cells in the 96-well plates treated with the potential HIF activators are recovered with a multichannel pipette for simultaneous assay of the VEGF and the EPO by ELISA according to the supplier's instructions (Kit EPO Mesoscale (ref K15122B-2)).
(§8) The activating activity of a compound with respect to HIF is given by the concentration that produces 50% of the maximum response of this same compound in Table IV.
Background: An ELISA detects its analyte on a solid surface through an enzyme-linked reagent.

Another data set deals with HIF1-alpha. Briefly: Measurement of the stabilization of HIF1-alpha in HEKEA cells (beta-galactosidase complementation). The format is cell-based, human. To be noted: HEKEA_HIF1-alphaPLBL cells, 6 hours under normoxia, luminescence; molar concentration that produces 50% of the maximum response of this same compound. The source says: Furthermore, a subject of the invention is also a uniform test for the direct measurement by beta-galactosidase complementation of the amount of HIF1-alpha protein in the nucleus of cells, preferably HEK cells, after treating the said cells with one or more test compounds, which consists in: • (a) inoculating, preferably in 384-well plates, the said cells in a suitable culture medium, preferably 1% foetal calf serum (abbreviated as FCS); • (b) adding the test compound(s) at a suitable concentration in a suitable solvent to the cells previously inoculated in the said culture medium; preferably the test compounds are diluted in 0.1% FCS; • (c) incubating the said cells thus prepared in an indicator at about 37° C., advantageously for about 6 hours; • (d) lysing the cells with a lysis buffer containing a chemiluminescent substrate for beta-galactosidase; • (e) incubating in the absence of light, before reading and measuring the luminescence, which is a function of the beta-galactosidase activity.
The test is a cell test based on the principle of enzyme complementation, the enzyme used herein being beta-galactosidase. HEKEA cells are HEK cells stably expressing, and restricted in their nucleus, mutant beta-galactosidase (omega fragment, also known as EA) (line sold by DiscoverX). This construct makes it possible to obtain beta-galactosidase activity only when the protein comprising the Prolabel complementation fragment has migrated into the nucleus.
The protein of interest comprising the Prolabel fragment is in this case an HIF1-alpha or HIF1-alpha mutated at the two prolines 402 and 564 replaced with alanines, is C-terminal fused via molecular biology (DiscoverX vector sold by Clontech) with the small complementation peptide fragment (Prolabel or ED, about 4 kDa). The vector coding for the chimeric protein HIF1-alpha_Prolabel is then transfected into HEKEA cells to obtain stable clones (HEKEA_HIF1-alphaPLBL).
The amount of C-terminal Prolabel-“labelled” HIF1-alpha protein obtained after treating the cells to hypoxia or compounds that are potentially HIF activators is measured by adding to the cells a lysis buffer containing a chemiluminescent substrate for beta-galactosidase.
The measurement of the beta-galactosidase activity will be proportional to the amount of Prolabel and thus of HIF1-alpha that has migrated into the nucleus of the cells.
1.3.1 Experiment Plan • 1) Inoculation of the cells on D0 • 2) Adherence for 24 hours under normoxia • 3) Preparation and addition of the products (Biomek 2000 and FX) on D+1 • 4) Incubation under normoxia for 6 hours • 5) Reading of the plates (by luminescence)
The cells are inoculated with Multidrop in white, opaque-bottomed 384-well plates (Greiner ref 3704), in 30 μl of culture medium (1% FCS) a 10000 cells/well (cell plate).
The test products are prepared at 3×10^−2 M in 100% DMSO and then diluted to 3×10^−4 M in medium containing 0.1% FCS (10 μl in 990 μl of MEM). They are then deposited by hand into column 12 of a round-bottomed 96-well plate (200 μl of each compound) known as the dilution plate (dl). The complete DL plate of 3×10^−4 M to 10^−9 M is then prepared with Biomek 2000 (programme: range of 10 points in series). For the references and controls, 100 μl of DMEM containing 0.1% FCS are added to column 1, 100 μl of Deferoxamine 10^−3M to column 2, wells A B C D and 100 μl of Deferoxamine 5×10^−3 M to column 2, wells E F G H.
3.3 μL are taken from the DL plate by pipetting with a Biomek FX 96 and placed in horizontal duplicate (columns 1 to 24) in each 384-well cell plate (HEKEA_HIF1-alphaPLBL cell plate).
The cells are then placed for 6 hours in an incubator at 37° C. (ambient O2, 6% CO2).
The kit used is the Prolabel chemiluminescent kit (Ref 93-0001 DiscoverX). […]

Another data set has as its system EPO. Briefly: Measurement of the secretion of EPO by Hep3B hepatocytes (ELISA). The format is cell-based. To be noted: Homo sapiens, supernatant of Hep3B cells, 18 hours under normoxia, concentration that produces 50% of the maximum response of this same compound. On the procedure: as §1, §2, §3, §4, §5, §6, §7, §8

`CCN(c1ccccc1)S(=O)(=O)c1ccc(-n2[nH]c3c(c2=O)COCC3)nc1` [Compound 25, N-ethyl-6-(3-oxo-1,4,6,7-tetrahydropyrano[4,3-c]pyrazol-2(3H)-yl)-N-phenylpyridine-3-sulfonamide] had a melting point of 164 °C. Moreover, a half-maximal effect in the data set on VEGF (EC50) was put at 2500 nM. In the data set on HIF1-alpha, this molecule displayed an EC50 of 3300 nM. The molecule also came in with an EC50 with EPO of 2400 nM.
On to `COc1ccnc(-n2[nH]c3c(c2=O)CSC3)c1` [Compound 59, 2-(4-methoxypyridin-2-yl)-1,2,4,6-tetrahydro-3H-thieno[3,4-c]pyrazol-3-one], for which the melting point is 254 °C. Besides, in the data set on VEGF, it took 3100 nM to reach a half-maximal effect (EC50). Further, a half-maximal response in the data set on EPO (EC50) required 2600 nM.
The molecule `O=c1c2c([nH]n1-c1ccc(S(=O)(=O)NC3CCCC3)cn1)CSC2` [Compound 20, N-cyclopentyl-6-(3-oxo-4,6-dihydro-1H-thieno[3,4-c]pyrazol-2(3H)-yl)pyridine-3-sulfonamide] yielded a melting point above 260 °C. The molecule also came in with an EC50 in the data set with VEGF of 900 nM. The same molecule had a half-maximal effective concentration (EC50) in the data set on HIF1-alpha of 3400 nM. Besides, the midpoint of the response in the data set with EPO, the EC50, lay at 1000 nM.
As for `CC(C)(C)NS(=O)(=O)c1ccc(-n2[nH]c3c(c2=O)CSC3)nc1` [Compound 18, N-tert-butyl-6-(3-oxo-4,6-dihydro-1H-thieno[3,4-c]pyrazol-2(3H)-yl)pyridine-3-sulfonamide], the melting point came to 257 °C. Further, the concentration giving a half-maximal response (EC50) in the data set on VEGF is 400 nM. In addition, in the data set on HIF1-alpha, it took 4400 nM to reach a half-maximal effect (EC50). The EC50 in the data set on EPO came to 500 nM.
For `CCN(c1ccccc1)S(=O)(=O)c1ccc(-n2[nH]c3c(c2=O)SCCC3)nc1` [Compound 24, N-ethyl-6-(3-oxo-3,5,6,7-tetrahydrothiopyrano[3,2-c]pyrazol-2(1H)-yl)-N-phenylpyridine-3-sulfonamide] the same measures were 198 °C, 500 nM, 3000 nM and 500 nM.
As to `O=c1c2c([nH]n1-c1ccc(S(=O)(=O)NC3CC3)cn1)CSC2` [Compound 16, N-cyclopropyl-6-(3-oxo-4,6-dihydro-1H-thieno[3,4-c]pyrazol-2(3H)-yl)pyridine-3-sulfonamide], the melting point stood at 262 °C. The midpoint of the response in the data set on VEGF, the EC50, lay at 3000 nM. The molecule further showed an EC50 in the data set on HIF1-alpha of 8600 nM. This molecule also came in with an EC50 in the data set on EPO of 3500 nM.
On to `CN(C(C)(C)C)S(=O)(=O)c1ccc(-n2nc3c(c2O)CSC3)nc1` [Compound 36, sodium 2-{5-[tert-butyl(methyl)sulfamoyl]pyridin-2-yl}-2,6-dihydro-4H-thieno[3,4-c]pyrazol-3-olate], for which the EC50 in the data set with VEGF came out at 2000 nM; in the data set on HIF1-alpha it was 1200 nM; in the data set with EPO it was 1600 nM.
With `CCN(C(C)(C)C)S(=O)(=O)c1ccc(-n2nc3c(c2O)CSC3)nc1` [Compound 32, sodium 2-{5-[tert-butyl(ethyl)sulfamoyl]pyridin-2-yl}-2,6-dihydro-4H-thieno[3,4-c]pyrazol-3-olate], the EC50 with VEGF was found to be 3200 nM; in the data set on HIF1-alpha it was 1300 nM; in the data set with EPO, 2600 nM.
The matching figures for `CCN(c1ccccc1)S(=O)(=O)c1ccc(-n2nc3c(c2O)N(Cc2ccccc2)C(=O)CC3)nc1` [Compound 35, sodium 4-benzyl-2-{5-[ethyl(phenyl)sulfamoyl]pyridin-2-yl}-5-oxo-4,5,6,7-tetrahydro-2H-pyrazolo[4,3-b]pyridin-3-olate]: 1100 nM, 2500 nM and 1700 nM.
The matching figures for `CCc1ccnc(-n2[nH]c3c(c2=O)CSC3)c1` [Compound 61, sodium 2-(4-ethylpyridin-2-yl)-2,6-dihydro-4H-thieno[3,4-c]pyrazol-3-olate]: 2800 nM, 1900 nM and 2200 nM.
Turning to `CC(C)(C)OC(=O)c1ccc(-n2[nH]c3c(c2=O)CSC3)nc1` [Compound 30, tert-butyl 6-(3-oxo-4,6-dihydro-1H-thieno[3,4-c]pyrazol-2(3H)-yl)pyridine-3-carboxylate], the EC50 with VEGF stood at 1800 nM; in the data set on HIF1-alpha, 650 nM; with EPO it was 1500 nM.
